Data published in US5512431A, “Methods of screening for nucleoside analogs that are incorporated by HIV reverse transcriptase and cause incorrect base pairing” (priority 1994, dated 1996).

Tests used:
HIV-RT = target: T1, HIV-RT (HIV-1 M:B_HXB2R, UniProt P04585); assay: Incorporation of oxidized dCTP derivatives into gapped M13mp2 DNA by HIV-RT; format: biochemical; conditions: for Molecules incorporated by HIV-RT per molecule of template: 2 min incubation
T1 construct: mature RT cut from Gag-Pol polyprotein (Pr160Gag-Pol)
Protocol: The purification of oxidized derivatives of dCTP is monitored by measuring incorporation into gapped DNA. The gapped DNA consists of a single-stranded circular M13mp2 DNA containing uracil residues annealed to a linear incomplete complementary strand lacking uracil so as to create a 361-nt gap spanning part of the lacZ gene (prepared as described in Feig and Loeb, Biochemistry 32:4466-73, 1993). The reaction mixture (0.02 ml) contains: 200 ng of gapped DNA, 60 mM Tris-HCl (pH 8.0), 10 mM KCl, 7 mM MgCl2, 1 mM dithiothreitol, 0.5 mM EDTA, 200 μM (each) dATP, dGTP and TTP, 1 μM α-^32 P!dCTP or modified dCTP (692 cpm/pmol), and 1.25 units of recombinant HIV-RT (Preston et al., Science 242:1168-1171, 1988) (1 unit is the amount of enzyme required to catalyze the incorporation of 1 nmol of dNTP into DNA in 1 h at 37° C.). The nucleotide bias in this reaction drives the incorporation of modified cytosine only at sites opposite guanosines in the lacZα gene. Samples are extracted once each with phenol and chloroform/isoamyl alcohol, 24:1, followed by ethanol precipitation in the presence of 400 mM NaCl and 10 μg of glycogen (as a coprecipitant). […]
The column fractions are used in place of dCTP for DNA synthesis reactions. […] Partially double-stranded DNA products are purified, and gap filling synthesis is completed using the Klenow fragment of E. coli DNA polymerase I. Incorporation of oxidized cytosine derivatives is quantified by scintillation counting and the toxicity of the fractions is assessed by comparing the transfection efficiency of DNA synthesized by using fractions containing the altered nucleotides to that of DNA synthesized with dCTP passed through the same column. The mutagenicity of each fraction is measured by scoring forward mutations in the lacZ gene for β-galactosidase (Kunkel, Proc. Natl. Acad Sci. USA 81:1494-1498, 1984).

lacZ gene = assay: Forward mutation assay in lacZ of gapped M13mp2 DNA (reduced α-complementation) after transfection into E. coli; format: cell-based; conditions: for Transfection efficiency, plaques per ng: Table I, gap filled by pol-I1f; for Transfection efficiency, plaques per ng / Transfection efficiency (yield of transfectants) / Mutation frequency: with HIV-RT; for Mutation frequency: number of mutants in parentheses in Table I
Text: The column fractions are used in place of dCTP for DNA synthesis reactions. The DNA template is a double-stranded M13mp2 molecule with a 361-nt single-stranded gap spanning part of the lacZ gene for bacterial β-galactosidase. The uracil-containing strand is rapidly hydrolyzed upon transfection in E. coli, resulting in a 10^4 -fold preferential expression of the strand lacking uracil and preventing the repair of altered cytidines incorporated into the strand lacking uracil. DNA synthesis is catalyzed by HIV RT in the presence of 200 μM dATP, dGTP and TTP and 1 μM of each fraction from the reverse-phase column. Partially double-stranded DNA products are purified, and gap filling synthesis is completed using the Klenow fragment of E. coli DNA polymerase I. Incorporation of oxidized cytosine derivatives is quantified by scintillation counting and the toxicity of the fractions is assessed by comparing the transfection efficiency of DNA synthesized by using fractions containing the altered nucleotides to that of DNA synthesized with dCTP passed through the same column. The mutagenicity of each fraction is measured by scoring forward mutations in the lacZ gene for β-galactosidase (Kunkel, Proc. Natl. Acad Sci. USA 81:1494-1498, 1984).
Mutations produced by the incorporation of oxidized derivatives of dCTP into gapped DNA are identified by reduced α-complementation of β-galactosidase activity. Logarithmic-phase MC1061 hsdR, mcrR, araD, (139.increment.^- araABC^- leu) 7679.increment.lacX74, galU, galK, rspL, thi^- ! is prepared for electroporation by washing the cells four times with sterile H2 O. Cells are then pelleted and resuspended in a volume of H2 O equal to that of the packed cells. Fifty nanograms of the filled-gap DNA product is mixed with 300 μl of cells and subjected to electroporation using a Bio-Rad Gene Pulser ([…], 400 W, 2.0 KV, and time constants between 6.0 and 7.5). Samples are placed on ice and mixed with 1 ml of LB medium. Aliquots (10-40 μl) of the transfection mixtures are added to 3 ml of molten top agar (42° C.) consisting of 0.9% NaCl, 0.8% Bacto Agar, 0.08% 5-bromo-4-chloro-3-indolylβ-D-galactoside dissolved in dimethlyformamide, and 0.2 ml of CSH50 .increment.(proBlac)/F'+raD36, thi^-, ara^-, proAB, lacI^α Z^- .increment.m15! cells in logarithmic phase, and layered onto plates containing 30 ml of solidified M9 medium supplemented with 1.5% Bacto Agar and 15 mM isopropyl-β-D-thiogalactoside (IPTG). Phenotypes are confirmed by mixing mutant phage with an equal quantity of wild type M13mp2 phage and replating. Phage DNA is isolated (Kunkel, Proc. Natl. Sci. USA 81:1494-1498, 1984) and sequenced by the method of Sanger etal. (J. Mol. Biol. 125:225-246, 1978) using a 15-mer oligodeoxyribonucleotide primer complementary to the +179 to +194 segment of the lacZα coding sequence.
Mutagenic potential of γ is assessed by using a forward mutation assay. To reduce the frequency of mutations arising from the incorporation of noncomplementary nucleotides by HIV-RT, this incubation is performed for only 2 min. Under these conditions, HIV-RT incorporates approximately five molecules of γ or nine molecules of undamaged dCTP per molecule of template. The gapped DNA is then completely filled by pol-I1f (the large fragment of E. coli DNA polymerase I) using the four undamaged nucleotides as substrates. The transfection efficiencies and mutation frequencies are given in Table I. In reactions without HIV-RT, 1040 transfectants are obtained per ng DNA, whereas with HIV-RT and undamaged dCTP ("purified" by reverse-phase and strong-anion exchange chromatography) the yield is 165 transfectants per ng of DNA. Substitution of γ for dCTP further reduced transfection efficiency, 73 transfectants per ng of DNA. In the absence of HIV-RT the mutation frequency is 4.6×10^-4 (line 1, Table I). […]

[1] = system: mammalian DNA polymerase-α; assay: Incorporation by mammalian DNA polymerase-α; format: biochemical
Protocol: (§1) Five different mammalian DNA polymerases have been identified, purified and characterized. These are designated as DNA polymerases α, β, γ, δ, ε based on their amino acid sequences, intracellular localization and presumed role in cellular DNA metabolism (Fry and Loeb, CRC Press, 1986). The ability of a human DNA polymerase to incorporate a deoxynucleoside triphosphates analogs is determined using a DNA template that corresponds to the sequence of the RNA template used to analyze incorporation by HIV RT. A direct comparison is made on the incorporation of nucleoside analogs in the triphosphate form using a human DNA polymerase with that of HIV RT.

[2] = system: mammalian DNA polymerase-β; assay: Incorporation by mammalian DNA polymerase-β; format: biochemical
Protocol: as §1

Structure (SMILES) | Molecules incorporated by HIV-RT per molecule of template (HIV-RT) | Transfection efficiency, plaques per ng (lacZ gene) [plaques per ng] | Increase of mutation frequency by reaction with HIV-RT and dCTP (lacZ gene; versus absence of HIV-RT) [fold] | Transfection efficiency (yield of transfectants) (lacZ gene) | Mutation frequency (lacZ gene) | Efficiency of incorporation into DNA by HIV-RT, % of that for dCTP (HIV-RT; relative to dCTP, gapped DNA) | Incorporation by mammalian DNA polymerase-α [1] | Incorporation by mammalian DNA polymerase-β relative to dCTP [2] [%] | Mutations that were C→T transitions (lacZ gene; 173 mutations, 92 mutants sequenced) [%] | Observed substitutions that occur at cytosines (lacZ gene; 178 of 181 substitutions, 92 mutants sequenced) [%] | Increase of mutation frequency (lacZ gene; average of five molecules of γ per template DNA, versus reaction with dCTP) [fold]
Nc1ccn([C@H]2C[C@H](O)[C@@H](COP(=O)(O)OP(=O)(O)OP(=O)(O)O)O2)c(=O)n1 [dCTP, reference compound] | nine | 165 | 2.4 | 165 transfectants per ng of DNA | 11 × 10^-4 |  |  |  |  |  | 
Nc1nc(=O)n([C@H]2C[C@H](O)[C@@H](COP(=O)(O)OP(=O)(O)OP(=O)(O)O)O2)cc1O [γ, 5-hydroxy-2'-deoxycytidine 5'-triphosphate] | approximately five | 73 |  | 73 transfectants per ng of DNA | 1200×10^-4 | about 56% | Neither species is incorporated appreciably | 18 | 95.6 | 98.3 | 109
